Test results from paper PMC6196238, “Novobiocin, a Newly Found TRPV1 Inhibitor, Attenuates the Expression of TRPV1 in Rat Intestine and Intestinal Epithelial Cell Line IEC-6” (Frontiers in Pharmacology, 2018).

System: rat intestine (jejunum, ileum, colon)
Assay: Ussing chamber intestinal permeability of CAP
Format: in vitro ADME
Settings: for fold-inhibition factor of CAP Papp: vs CAP only
Protocol: NOVO was also prepared in HEPES buffer to yield final concentration at 5, 10, 25, 50, 100, and 200 μM. […] Different portions of the rat intestine were excised and flushed with HEPES buffer, including jejunum (after the first 5 cm of the top of small intestine), ileum (the distal part of small intestine) and colon (proximal to cecal-colonic junction), and incubated in the ice-cold HEPES buffer. Next, 3–4 cm of the intestine was clipped, and the serosa was removed rapidly on an ice-cold glass. The intestinal segments were fixed in the Ussing chamber. Finally, 7 mL of HEPES buffer was added to the receiving side while an equal volume of drug solution to the dosing side. […] All the samples were kept at -20°C till HPLC analysis.
In brief, samples were injected into a C18 column (3.5 μm, 2.1 mm × 100 mm). An aliquot of 20 μL of sample solutions were injected.

Compound: CO[C@@H]1[C@@H](OC(N)=O)[C@@H](O)[C@H](Oc2ccc3c(O)c(NC(=O)c4ccc(O)c(CC=C(C)C)c4)c(=O)oc3c2C)OC1(C)C [NOVO, novobiocin]
- permeability of CAP in the Ussing chamber experiment (NOVO concentration higher than 100 μM, data not shown): increased
- Papp of CAP (colon, CAP + 5 μM inhibitor): 8.28 ± 2.55 ×10^-6, cm⋅s^-1
- fold-inhibition factor of CAP Papp (colon, CAP + 5 μM inhibitor): 2.41 fold
- Papp of CAP (colon, CAP + 10 μM inhibitor): 6.05 ± 1.85 ×10^-6, cm⋅s^-1
- fold-inhibition factor of CAP Papp (colon, CAP + 10 μM inhibitor): 3.30 fold
- Papp of CAP (colon, CAP + 25 μM inhibitor): 5.65 ± 2.04 ×10^-6, cm⋅s^-1
- fold-inhibition factor of CAP Papp (colon, CAP + 25 μM inhibitor): 3.54 fold
- Papp of CAP (colon, CAP + 50 μM inhibitor): 9.79 ± 2.20 ×10^-6, cm⋅s^-1
- fold-inhibition factor of CAP Papp (colon, CAP + 50 μM inhibitor): 2.04 fold
- Papp of CAP (ileum, CAP + 5 μM inhibitor): 3.40 ± 0.76 ×10^-6, cm⋅s^-1
- fold-inhibition factor of CAP Papp (ileum, CAP + 5 μM inhibitor): 2.17 fold
- Papp of CAP (ileum, CAP + 10 μM inhibitor): 2.17 ± 0.58 ×10^-6, cm⋅s^-1
- fold-inhibition factor of CAP Papp (ileum, CAP + 10 μM inhibitor): 3.40 fold
- Papp of CAP (ileum, CAP + 25 μM inhibitor): 4.02 ± 0.42 ×10^-6, cm⋅s^-1
- fold-inhibition factor of CAP Papp (ileum, CAP + 25 μM inhibitor): 1.83 fold
- Papp of CAP (ileum, CAP + 50 μM inhibitor): 5.23 ± 0.25 ×10^-6, cm⋅s^-1
- fold-inhibition factor of CAP Papp (ileum, CAP + 50 μM inhibitor): 1.41 fold
- Papp of CAP (jejunum, CAP + 5 μM inhibitor): 1.96 ± 0.25 ×10^-6, cm⋅s^-1
- fold-inhibition factor of CAP Papp (jejunum, CAP + 5 μM inhibitor): 1.60 fold
- Papp of CAP (jejunum, CAP + 10 μM inhibitor): 1.36 ± 0.47 ×10^-6, cm⋅s^-1
- fold-inhibition factor of CAP Papp (jejunum, CAP + 10 μM inhibitor): 2.31 fold
- Papp of CAP (jejunum, CAP + 25 μM inhibitor): 1.60 ± 0.38 ×10^-6, cm⋅s^-1
- fold-inhibition factor of CAP Papp (jejunum, CAP + 25 μM inhibitor): 1.97 fold
- Papp of CAP (jejunum, CAP + 50 μM inhibitor): 2.11 ± 0.04 ×10^-6, cm⋅s^-1
- fold-inhibition factor of CAP Papp (jejunum, CAP + 50 μM inhibitor): 1.49 fold
